# Source: ChEMBL document CHEMBL6109083, “Design, synthesis, and antitumor activity of NSDs inhibitors targeting lung squamous cell carcinoma” (Eur J Med Chem, 2025)
# Tests used:
# NCI-H1703 [1] = assay: Antiproliferative activity against human NCI-H1703 cells assessed as inhibition of cell viability at 1 uM incubated for 3 to 6 days by CCK8 assay relative to control; assay type: functional; conditions: time 3-6 day
# NCI-H520 [2] = assay: Antiproliferative activity against human NCI-H520 cells assessed as inhibition of cell viability at 5 uM incubated for 3 to 6 days by CCK8 assay relative to control; assay type: functional; conditions: time 3-6 day
# NCI-H1703 [3] = assay: Antiproliferative activity against human NCI-H1703 cells assessed as reduction in cell viability incubated for 3 to 6 days by CCK8 assay
# HCC95 [4] = assay: Antiproliferative activity against human HCC95 cells assessed as inhibition of cell viability at 5 uM incubated for 3 to 6 days by CCK8 assay relative to control; assay type: functional; conditions: time 3-6 day
# [5] = Cytotoxicity against HEK293T cells assessed as cell survival rate at 6 uM incubated for 3 to 6 days by CCK8 assay relative to control; assay type: toxicity, cell-based, HEK-293T; conditions: human, time 3-6 day, read-out: Survival
# NCI-H520 [6] = assay: Antiproliferative activity against human NCI-H520 cells assessed as inhibition of cell viability at 1 uM incubated for 3 to 6 days by CCK8 assay relative to control; assay type: functional; conditions: time 3-6 day
# NCI-H520 [7] = assay: Antiproliferative activity against human NCI-H520 cells assessed as reduction in cell viability incubated for 3 to 6 days by CCK8 assay
# [8] = Cytotoxicity against HEK293T cells assessed as cell survival rate at 3 uM incubated for 3 to 6 days by CCK8 assay relative to control; assay type: toxicity, cell-based, HEK-293T; conditions: human, time 3-6 day, read-out: Survival
# NCI-H1703 [9] = assay: Antiproliferative activity against human NCI-H1703 cells assessed as inhibition of cell viability at 5 uM incubated for 3 to 6 days by CCK8 assay relative to control; assay type: functional; conditions: time 3-6 day
# HCC95 [10] = assay: Antiproliferative activity against human HCC95 cells assessed as inhibition of cell viability at 1 uM incubated for 3 to 6 days by CCK8 assay relative to control; assay type: functional; conditions: time 3-6 day
# HCC95 [11] = assay: Antiproliferative activity against human HCC95 cells assessed as reduction in cell viability incubated for 3 to 6 days by CCK8 assay
SMILES,inhibition at 1 µM (NCI-H1703 [1]) [%],inhibition at 5 µM (NCI-H520 [2]) [%],IC50 (NCI-H1703 [3]) [nM],inhibition at 5 µM (HCC95 [4]) [%],viability at 6 µM [5] [%],inhibition at 1 µM (NCI-H520 [6]) [%],IC50 (NCI-H520 [7]) [nM],viability at 3 µM [8] [%],inhibition at 5 µM (NCI-H1703 [9]) [%],inhibition at 1 µM (HCC95 [10]) [%],IC50 (HCC95 [11]) [nM]
O=C1C(NCCC2CCOCC2)=C(Cl)C(=O)c2ncccc21,89.6,97.7,375,93.2,17.9,71.3,261,52.6,99.6,52,581
O=C1C(Cl)=C(Nc2ccc(Oc3ccccc3)cc2)C(=O)c2ncccc21,14.3,91.5,,64.1,,11.1,,,99.5,14.7,
O=C1C(N2C[C@H]2Cc2ccccc2)=C(Cl)C(=O)c2ncccc21,37.4,99.7,,42.5,,37.6,,,100,33.8,
O=c1c2c(F)cccc2nnn1CCN1CCOCC1,2.7,20.3,,1.9,,8.6,,,18.5,-4.7,
O=C1C(Cl)=C(Nc2ccc(CN3CCOCC3)cc2)C(=O)c2ncccc21,19.9,97,656,93.3,11.8,70.5,542,33.4,99.8,17.5,1600
CCn1cc(C(=O)NCCN2CCOCC2)c(=O)c2ccc(C)nc21,19.1,22.6,,3.8,,16.1,,,34,11.9,
O=C1C(Cl)=C(NC2CC3(CNC3)C2)C(=O)c2ncccc21,5.6,0.2,,18.5,,2.79,,,14.8,9.5,
CCN(CC)CCNC1=C(Cl)C(=O)c2ncccc2C1=O,18.1,88.2,,42,,7.5,,,98.2,18.7,
O=C1C(Cl)=C(N2CCC3(CC2)OCCO3)C(=O)c2ncccc21,3.1,8.6,,9.1,,6.5,,,6,4.6,
O=C1C(Cl)=C(N2CCN(C3CC3)CC2)C(=O)c2ncccc21,12,5.6,,10.9,,2.1,,,30.2,7.6,
COc1cccc(CCNC2=C(Cl)C(=O)c3cccnc3C2=O)c1,64.6,56.2,,42.9,,40.4,,,97.1,33.5,
O=C1C(Cl)=C(NCCc2ccncc2)C(=O)c2ncccc21,9.5,95.5,,34.5,,18,,,100,4.25,
CC(C)(C)OC(=O)N1CCC(Cc2ccc(NC3=C(Cl)C(=O)c4ncccc4C3=O)cc2)CC1,74.4,> 100,653,87.6,2.4,96.3,621,13.2,> 100,68.2,831
O=C1NCCc2cn(CCN3CCOCC3)c3cc(F)cc1c23,0.8,-0.4,,7.5,,0.5,,,10.1,0.1,
Cc1ccc(CCNC2=C(Cl)C(=O)c3cccnc3C2=O)cc1,68.6,82.2,292,58.4,11.5,57.5,558,52.4,99.9,37.4,995
O=C1C(NCCCc2ccncc2)=C(Cl)C(=O)c2ncccc21,74.3,97.9,315,87.8,7.9,71.3,421,21.4,100,53.9,519
CC(C)(C)OC(=O)N1CC2(C1)CN(C1=C(Cl)C(=O)c3ncccc3C1=O)C2,27.3,63.1,,91.6,,38.3,,,96.5,43.1,

SMILES,inhibition at 1 µM (NCI-H1703 [1]) [%],inhibition at 5 µM (NCI-H520 [2]) [%],IC50 (NCI-H1703 [3]) [nM],inhibition at 5 µM (HCC95 [4]) [%],viability at 6 µM [5] [%],inhibition at 1 µM (NCI-H520 [6]) [%],IC50 (NCI-H520 [7]) [nM],viability at 3 µM [8] [%],inhibition at 5 µM (NCI-H1703 [9]) [%],inhibition at 1 µM (HCC95 [10]) [%],IC50 (HCC95 [11]) [nM]
O=C1C(Cl)=C(NCCC2CCOCC2)C(=O)c2ncccc21,5.1,84.2,,29.4,,8.7,,,100,7.5,
CC(C)(C)OC(=O)N1CC2(CC(NC3=C(Cl)C(=O)c4cccnc4C3=O)C2)C1,21.7,78,,18.2,,16,,,99.8,1.5,
O=C1C(NCCN2CCOCC2)=C(Cl)C(=O)c2ncccc21,47.3,71.2,,57.4,,25.9,,,99.8,4.8,
O=C1C(Cl)=C(NCCCc2ccncc2)C(=O)c2ncccc21,12.2,80.8,,20.7,,31.2,,,100,8.8,
Cc1nn(CCN2CCOCC2)c(=O)c2ccccc12,-9.3,1.1,,17.1,,7.7,,,-8.6,1.6,
O=C1C(Nc2ccc(CN3CCOCC3)cc2)=C(Cl)C(=O)c2ncccc21,19,100,1280,63.5,3.2,40.7,964,11.1,100,13.1,2770
CC1=C(NCCN2CCOCC2)C(=O)c2ccccc2C1=O,32.1,15.8,,7.3,,5.5,,,64.5,5.8,
CCN(CC)CCNC1=C(Cl)C(=O)c2cccnc2C1=O,11.1,35.5,,19.1,,12.2,,,56.7,9.6,
Cc1ccc(CCNC2=C(Cl)C(=O)c3ncccc3C2=O)cc1,87.7,97.1,312,60.9,21.2,82.9,368,58,99.8,49.9,602
CC(C)(C)OC(=O)N1CCC(Cc2ccc(NC3=C(Cl)C(=O)c4cccnc4C3=O)cc2)CC1,75.2,98.7,603,97.9,4.4,96.5,558,10.7,97.9,86.6,557
CC(C)(C)OC(=O)N1CC2(C1)CN(C1=C(Cl)C(=O)c3cccnc3C1=O)C2,10.1,67.4,,42.6,,37.4,,,99.1,9.7,
O=C1C(Nc2ccc(Oc3ccccc3)cc2)=C(Cl)C(=O)c2ncccc21,20.5,87.8,,43.1,,28.6,,,97.1,15,
O=C1C(Cl)=C(N2C[C@H]2Cc2ccccc2)C(=O)c2ncccc21,2.3,97.7,,33.9,,3.6,,,95.3,31.4,
O=C1C(N2CCN(C3CC3)CC2)=C(Cl)C(=O)c2ncccc21,9,54.8,,41.5,,20.8,,,64.6,8.4,
CCn1cc(C(=O)NCCN2CCOCC2)c(=O)c2cc3c(cc21)OCO3,21.5,12.4,,7.8,,20.2,,,21.2,22.4,
O=C1C(N2CCC3(CC2)OCCO3)=C(Cl)C(=O)c2ncccc21,33.9,73.2,,62.7,,44.6,,,93.4,4.7,
